# Source: patent publication US9365576B2, “Pyrrolopyrrolidinone compounds” (Novartis AG, priority 2012, dated 2016)
# Target: human MDM2 protein (amino acids 2-188) (Homo sapiens (Human), UniProt Q00987)
# Assay: TR-FRET assay, p53-MDM2 Assay 2 (modified)
# Type: binding
# Details: TR-FRET; 0.1 nM MDM2, 0.1 nM Europium labeled streptavidin, Tecan genios Pro reader; read-out: IC50 p53-MDM2 Assay 2
# Method: The inhibition of p53-MDM2 and p53-MDM4 interactions is measured by time resolved fluorescence energy transfer (TR-FRET). Fluorescence energy transfer (or Foerster resonance energy transfer) describes an energy transfer between donor and acceptor fluorescent molecules. For this assay, human MDM2 protein (amino acids 2-188) and human MDM4 protein (amino acids 2-185), tagged with a C-terminal biotin moiety, are used in combination with a Europium labeled streptavidin (Perkin Elmer, Inc., Waltham, Mass., USA) serving as the donor fluorophore. The p53 derived, Cy5 labeled peptide Cy5-[…] (p53 aa18-26) is the energy acceptor. Upon excitation of the donor molecule at 340 nm, binding interaction between MDM2 or MDM4 and the p53 peptide induces energy transfer and enhanced response at the acceptor emission wavelength at 665 nm. […] The ratiometric FRET assay readout is calculated from the raw data of the two distinct fluorescence signals measured in time resolved mode (fluorescence 665 nm/fluorescence 620 nm×1000).
# After addition of 1.25 nM MDM2-biotinylated or 2.5 nM MDM4-biotinylated (internal preparations), and 0.625 nM Europium labeled streptavidin (Perkin Elmer), the solution is pre-incubated for 15 minutes at room temperature, then 10 nM Cy5-p53 peptide (internal preparation) is added before an incubation at room temperature for 15 minutes prior to reading the plate. For measurement of samples, a Victor II microplate reader (Perkin Elmer) is used with the following settings: Excitation 340 nm, Emission Donor 620 nm and Emission Acceptor 665 nm. IC50 values are calculated by curve fitting using XLfit. If not specified, reagents are purchased from Sigma-Aldrich Chemie GmBH, Buchs, Switzerland.
# Sequence of human MDM2 protein (amino acids 2-188) (Q00987 2-188): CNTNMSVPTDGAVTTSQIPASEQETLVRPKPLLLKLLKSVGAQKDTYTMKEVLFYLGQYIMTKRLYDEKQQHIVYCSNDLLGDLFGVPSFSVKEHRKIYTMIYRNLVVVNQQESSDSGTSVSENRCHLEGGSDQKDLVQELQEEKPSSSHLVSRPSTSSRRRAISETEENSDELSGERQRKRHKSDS
row,SMILES,IC50
1,"COc1nc(N(C)C)ncc1-c1cc2c(n1C(C)C)C(c1ccc(C#N)cc1)N(c1cc(Cl)cnc1OC)C2=O (centres unmarked) [Example 207, 4-[5-[5-Chloro-2-methoxy-pyridin-3-yl)-2-(2-dimethylamino-4-methoxy-pyrimidin-5-yl)-1-isopropyl-4-oxo-1,4,5,6-tetrahydro-pyrrolo[3,4-b]pyrrol-6-yl]-benzonitrile]",0.185 nM
2,"COc1ncc(-c2cc3c(n2C(C)C)[C@@](C)(c2ccc(Cl)cc2)N(c2cc(Cl)c(=O)n(C)c2)C3=O)c(OC)n1 [Example 163, (R)-5-(5-Chloro-1-methyl-6-oxo-1,6-dihydro-pyridin-3-yl)-6-(4-chloro-phenyl)-2-(2,4-dimethoxy-pyrimidin-5-yl)-1-isopropyl-6-methyl-5,6-dihydro-1H-pyrrolo[3,4-b]pyrrol-4-one]",42.7 nM
3,"COc1nc(N)ncc1-c1cc2c(n1C(C)C)C(c1ccc(Cl)cc1)N([C@H]1CC[C@H](OC)CC1)C2=O (stereo partly drawn) [Example 141, 2-(2-Amino-4-methoxy-pyrimidin-5-yl)-6-(4-chloro-phenyl)-1-isopropyl-5-(trans-4-methoxy-cyclohexyl)-5,6-dihydro-1H-pyrrolo[3,4-b]pyrrol-4-one]",6.85 nM
4,"COc1nc(N(C)C)ncc1-c1cc2c(n1C(C)C)C(c1ccc(Cl)cc1)N(c1ccc(F)c(Cl)c1)C2=O (centres unmarked) [Example 58, 5-(3-Chloro-4-fluoro-phenyl)-6-(4-chloro-phenyl)-2-(2-dimethylamino-4-methoxy-pyrimidin-5-yl)-1-isopropyl-5,6-dihydro-1H-pyrrolo[3,4-b]pyrrol-4-one]",0.458 nM
5,"CNc1ncc(-c2cc3c(n2C(C)C)C(c2ccc(C#N)cc2)N(c2cc(Cl)c(=O)n(C)c2)C3=O)c(OC)n1 (centres unmarked) [Example 133, 4-[5-(5-Chloro-1-methyl-6-oxo-1,6-dihydro-pyridin-3-yl)-1-isopropyl-2-(4-methoxy-2-methylamino-pyrimidin-5-yl)-4-oxo-1,4,5,6-tetrahydro-pyrrolo[3,4-b]pyrrol-6-yl]-benzonitrile]",0.327 nM
6,"COc1nc(N(C)C)ncc1-c1cc2c(n1C(C)C)[C@H](c1ccc(C#N)cc1)N(C1CCOCC1)C2=O [Example 190, 4-[(S)-2-(2-Dimethylamino-4-methoxy-pyrimidin-5-yl)-1-isopropyl-4-oxo-5-(tetrahydro-pyran-4-yl)-1,4,5,6-tetrahydro-pyrrolo[3,4-b]pyrrol-6-yl]-benzonitrile]",0.631 nM
7,"COc1nc(N(C)C)ncc1-c1cc2c(n1C(C)C)C(c1ccc(Cl)cc1)N(c1cc(Cl)ccc1C#N)C2=O (centres unmarked) [Example 100, 4-Chloro-2-[6-(4-chloro-phenyl)-2-(2-dimethylamino-4-methoxy-pyrimidin-5-yl)-1-isopropyl-4-oxo-4,6-dihydro-1H-pyrrolo[3,4-b]pyrrol-5-yl]-benzonitrile]",0.316 nM
8,"CNS(=O)(=O)c1ccc(OC)c(-c2cc3c(n2C(C)C)C(c2ccc(Cl)cc2)N(c2cc(Cl)ccc2C)C3=O)c1 (centres unmarked) [Example 62, 3-[5-(5-Chloro-2-methyl-phenyl)-6-(4-chloro-phenyl)-1-isopropyl-4-oxo-1,4,5,6-tetrahydro-pyrrolo[3,4-b]pyrrol-2-yl]-4-methoxy-N-methyl-benzenesulfonamide]",0.169 nM
9,"COc1ccc(C(=O)N(C)C)cc1-c1cc2c(n1C(C)C)[C@@H](c1ccc(Cl)cc1)N(c1cc(Cl)ccc1C)C2=O [Example 21, 3-[(R)-5-(5-Chloro-2-methyl-phenyl)-6-(4-chloro-phenyl)-1-isopropyl-4-oxo-1,4,5,6-tetrahydro-pyrrolo[3,4-b]pyrrol-2-yl]-4-methoxy-N,N-dimethyl-benzamide]",621 nM
10,"COc1nc(N)ncc1-c1cc2c(n1C(C)C)[C@@H](c1ccc(C#N)cc1)N(c1ccc(F)c(Cl)c1)C2=O [Example 172, 4-[(R)-2-(2-Amino-4-methoxy-pyrimidin-5-yl)-5-(3-chloro-4-fluoro-phenyl)-1-isopropyl-4-oxo-1,4,5,6-tetrahydro-pyrrolo[3,4-b]pyrrol-6-yl]-benzonitrile]",115 nM
11,"COc1cnc(CC(=O)O)cc1-c1cc2c(n1C(C)C)C(c1ccc(C#N)cc1)N(c1cccc(Cl)c1F)C2=O (centres unmarked) [Example 84, {4-[5-(3-Chloro-2-fluoro-phenyl)-6-(4-cyano-phenyl)-1-isopropyl-4-oxo-1,4,5,6-tetrahydro-pyrrolo[3,4-b]pyrrol-2-yl]-5-methoxy-pyridin-2-yl}-acetic acid]",0.482 nM
12,"COc1ncc(-c2cc3c(n2C(C)C)[C@H](c2ccc(Cl)cc2)N(c2cc(Cl)ccc2C)C3=O)c(OC)n1 [Example 23, (S)-5-(5-Chloro-2-methyl-phenyl)-6-(4-chloro-phenyl)-2-(2,4-dimethoxy-pyrimidin-5-yl)-1-isopropyl-5,6-dihydro-1H-pyrrolo[3,4-b]pyrrol-4-one]",0.065 nM
13,"COc1ncc(-c2cc3c(n2C(C)C)C(c2ccc(Cl)cc2)N(c2cc(Cl)c(=O)n(C)c2)C3=O)c(OC)n1 (centres unmarked) [Example 48, 5-(5-Chloro-1-methyl-6-oxo-1,6-dihydro-pyridin-3-yl)-6-(4-chloro-phenyl)-2-(2,4-dimethoxy-pyrimidin-5-yl)-1-isopropyl-5,6-dihydro-1H-pyrrolo[3,4-b]pyrrol-4-one]",0.188 nM
14,"COc1nc(N(C)C)ncc1-c1c(C(=O)O)c2c(n1C(C)C)C(c1ccc(Cl)cc1)N(c1cc(Cl)c(=O)n(C)c1)C2=O (centres unmarked) [Example 226, 5-(5-Chloro-1-methyl-6-oxo-1,6-dihydro-pyridin-3-yl)-6-(4-chloro-phenyl)-2-(2-dimethylamino-4-methoxy-pyrimidin-5-yl)-1-isopropyl-4-oxo-1,4,5,6-tetrahydro-pyrrolo[3,4-b]pyrrole-3-carboxylic acid]",0.132 nM
15,"COc1ccc(C(=O)N2CCOCC2)cc1-c1cc2c(n1C(C)C)C(c1ccc(Cl)cc1)N(c1cc(Cl)c(=O)n(C)c1)C2=O (centres unmarked) [Example 47, 5-(5-Chloro-1-methyl-6-oxo-1,6-dihydro-pyridin-3-yl)-6-(4-chloro-phenyl)-1-isopropyl-2-[2-methoxy-5-(morpholine-4-carbonyl)-phenyl]-5,6-dihydro-1H-pyrrolo[3,4-B]pyrrol-4-one]",0.15 nM
16,"COc1ncc(-c2cc3c(n2C(C)C)C(c2ccc(C#N)cc2)N(c2ccc(F)c(Cl)c2)C3=O)c(OC)n1 (centres unmarked) [Example 40, 4-[5-(3-Chloro-4-fluoro-phenyl)-2-(2,4-dimethoxy-pyrimidin-5-yl)-1-isopropyl-4-oxo-1,4,5,6-tetrahydro-pyrrolo[3,4-b]pyrrol-6-yl]-benzonitrile]",0.478 nM
17,"COc1nc(N(C)C)ncc1-c1cc2c(n1C(C)C)C(c1ccc(C#N)cc1)N(c1cc(Cl)c[nH]c1=O)C2=O (centres unmarked) [Example 127, 4-[5-(5-Chloro-2-oxo-1,2-dihydro-pyridin-3-yl)-2-(2-dimethylamino-4-methoxy-pyrimidin-5-yl)-1-isopropyl-4-oxo-1,4,5,6-tetrahydro-pyrrolo[3,4-b]pyrrol-6-yl]-benzonitrile]",0.359 nM
18,"COc1ncccc1-c1cc2c(n1C(C)C)C(c1ccc(Cl)cc1C)N(c1cccc(Cl)c1F)C2=O (centres unmarked) [Example 5, 5-(3-Chloro-2-fluoro-phenyl)-6-(4-chloro-2-methyl-phenyl)-1-isopropyl-2-(2-methoxy-pyridin-3-yl)-5,6-dihydro-1H-pyrrolo[3,4-b]pyrrol-4-one]",1.7 nM
19,"CNC(=O)c1ccc(OC)c(-c2cc3c(n2C(C)C)C(c2ccc(Cl)cc2)N(c2cc(Cl)c(=O)n(C)c2)C3=O)c1 (centres unmarked) [Example 49, 3-[5-(5-Chloro-1-methyl-6-oxo-1,6-dihydro-pyridin-3-yl)-6-(4-chloro-phenyl)-1-isopropyl-4-oxo-1,4,5,6-tetrahydro-pyrrolo[3,4-b]pyrrol-2-yl]-4-methoxy-N-methyl-benzamide]",0.137 nM
20,"COc1nc(N)ncc1-c1cc2c(n1C(C)C)C(c1ccc(Cl)cc1)N(c1cc(Cl)ccc1C#N)C2=O (centres unmarked) [Example 99, 2-[2-(2-Amino-4-methoxy-pyrimidin-5-yl)-6-(4-chloro-phenyl)-1-isopropyl-4-oxo-4,6-dihydro-1H-pyrrolo[3,4-b]pyrrol-5-yl]-4-chloro-benzonitrile]",1.44 nM
21,"[2H]C([2H])([2H])Oc1ncc(-c2cc3c(n2C(C)C)[C@H](c2ccc(Cl)cc2)N(c2cc(Cl)c(=O)n(C)c2)C3=O)c(OC([2H])([2H])[2H])n1 [Example 218, (S)-5-(5-Chloro-1-methyl-6-oxo-1,6-dihydro-pyridin-3-yl)-6-(4-chloro-phenyl)-2-(2,4-d6-dimethoxy-pyrimidin-5-yl)-1-isopropyl-5,6-dihydro-1H-pyrrolo[3,4-b]pyrrol-4-one]",0.106 nM
22,"COc1ncc(-c2cc3c(n2C(C)C)C(c2ccc(Cl)cc2)N(c2cn(C)nc2C)C3=O)c(OC)n1 (centres unmarked) [Example 181, 6-(4-Chloro-phenyl)-2-(2,4-dimethoxy-pyrimidin-5-yl)-5-(1,3-dimethyl-1H-pyrazol-4-yl)-1-isopropyl-5,6-dihydro-1H-pyrrolo[3,4-b]pyrrol-4-one]",2.39 nM
23,"CNC(=O)c1ccc(OC)c(-c2cc3c(n2C(C)C)C(c2ccc(Cl)cc2)N(C2CCOCC2)C3=O)c1 (centres unmarked) [Example 75, 3-[6-(4-Chloro-phenyl)-1-isopropyl-4-oxo-5-(tetrahydro-pyran-4-yl)-1,4,5,6-tetrahydro-pyrrolo[3,4-b]pyrrol-2-yl]-4-methoxy-N-methyl-benzamide]",1.09 nM
